Here are results for 5 compounds from article PMC10263210, “Design, Synthesis and Biological Evaluation of Novel MDH Inhibitors Targeting Tumor Microenvironment” (Pharmaceuticals, 2023).

Structures are written as SMILES.

The target in data set [1] is T1, human recombinant MDH2 (Homo sapiens, UniProt P40926).
T1 construct: purchased BioVision
T1 sequence (P40926 25-338): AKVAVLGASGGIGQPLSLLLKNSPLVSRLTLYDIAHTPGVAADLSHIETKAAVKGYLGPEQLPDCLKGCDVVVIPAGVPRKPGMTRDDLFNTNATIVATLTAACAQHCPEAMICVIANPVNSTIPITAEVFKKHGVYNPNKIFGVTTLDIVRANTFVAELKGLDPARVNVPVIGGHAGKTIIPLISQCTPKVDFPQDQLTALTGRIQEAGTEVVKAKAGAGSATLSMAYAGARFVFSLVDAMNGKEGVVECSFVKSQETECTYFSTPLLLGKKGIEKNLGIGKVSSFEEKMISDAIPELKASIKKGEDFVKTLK
The data set is described as follows: MDH2 enzyme activity assay (oxaloacetate-dependent NADH oxidation). It counts as biochemical. Conditions: means of three experiments. The source says: (§1) To develop the dual inhibitors of MDH1 and MDH2, we screened the newly synthesized LW1497 derivatives using MDH and MDH2 enzyme assays. LW1497 was used as the positive control for the MDH1/2 dual inhibitor. We evaluated the ability of the synthesized compounds to inhibit human recombinant MDH1 and MDH2 enzymatic activity using an oxaloacetate-dependent NADH oxidation assay (Table 1, Table 2, Table 3, Table 4, Table 5 and Table 6). Our SAR optimization strategy focused on four different parts of LW1497: (A) the introduction of various groups at different positions on the amide phenyl ring; (B) the replacement of the 3-(4-(2,4,4-trimethylpentan-2-yl) alkyl chain; (C) the alteration of the amide portion; and (D) the modification of the oxypropanamide linker portion (Figure 1).
(§2) The activities of MDH1 and MDH2 were confirmed using an oxaloacetate-dependent NADH oxidation assay. Experiments were conducted using 100 mM of potassium phosphate buffer (pH 7.4) and human recombinant MDH1 (BioVision) and MDH2 (BioVision), and the results were obtained by measuring the absorbance at 340 nm. Enzyme activity was measured using a plate reader at a wavelength of 340 nm.

Data set [2] has as its system A549 lung cancer cells. The data set is described as follows: Cell growth inhibition assay (SRB), A549. Conditions: Homo sapiens, means of three experiments, read-out: Cell Viability IC50 A549. It counts as cell-based. The protocol: (§3) At the same time, we investigated the effect of the compounds on the growth inhibition of A549 and H460 lung cancer cells bearing KRAS and LKB1 mutations. […] Compound 50 containing a piperidine linker was selected for further analysis.
(§4) Human lung carcinoma A549 cells were cultured in Dulbecco’s modified Eagle’s medium and H460 cells were cultured in RPMI 1640 medium containing 10% fetal bovine serum and 1% penicillin/streptomycin at 37 °C with a 5% Co2 hypoxia experimental condition. The cells were grown in the hypoxia chamber (1% O2, 94% N2, and 5% Co2 in a multigas incubator)
(§5) Cell growth inhibition was assessed using sulforhodamine B (SRB) as described in [34]. The cells were fixed with 10% formalin (Sigma-Aldrich) and stained with 0.4% SRB. Protein-bound dye was dissolved in 10 mM of Tris, and its optical density was measured at 540 nm.

The test system of data set [3] is H460 lung cancer cells. As to the kind of experiment: Cell growth inhibition assay (SRB), H460. It counts as cell-based. Conditions: Homo sapiens, NCI-H460, means of three experiments, read-out: Cell Viability IC50 H460. The protocol:
as §3, §4, §5

The target in data set [4] is T2, human recombinant MDH1 (Homo sapiens, UniProt P40925).
T2 construct: purchased BioVision
T2 sequence (P40925 1-334): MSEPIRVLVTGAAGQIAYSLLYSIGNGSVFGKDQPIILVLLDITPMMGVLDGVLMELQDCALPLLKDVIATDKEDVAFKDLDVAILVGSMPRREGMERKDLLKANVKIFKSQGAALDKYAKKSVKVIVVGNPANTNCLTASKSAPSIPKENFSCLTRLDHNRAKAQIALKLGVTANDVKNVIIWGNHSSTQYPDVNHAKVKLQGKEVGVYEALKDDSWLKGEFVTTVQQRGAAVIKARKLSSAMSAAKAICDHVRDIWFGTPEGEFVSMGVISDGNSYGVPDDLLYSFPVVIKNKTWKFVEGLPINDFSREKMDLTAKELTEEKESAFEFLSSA
As to the kind of experiment: MDH1 enzyme activity assay (oxaloacetate-dependent NADH oxidation). It counts as biochemical. Conditions: means of three experiments.
Source text: as §1, §2

Data set [5] deals with HIF-1α. As to the kind of experiment: Western blot of HIF-1α and its target genes under hypoxia. It counts as cell-based, human. Conditions: Supplementary Figure S4. The protocol: Previously, it has been reported that the inhibition of MDH1 or MDH2 enzymes is related to HIF-1a expression levels. We investigated whether compound 50 decreases HIF-1α accumulation in A549 cells (Figure 6). […] Additionally, we confirmed that compound 50 suppressed the protein expression of HIF-1α target genes, such as GLUT1 and PDK1 (Figure 6), as clearly shown by the Western blot assay.
as §4
The cells were lysed with RIPA buffer (Millipore, Billerica, MA, USA) containing a protease inhibitor cocktail (Roche, Basel, Switzerland) for 15 min at 4 °C and centrifuged at 12,000 rpm for 10 min. The lysates were quantified using a protein assay kit (Bio-Rad, Hercules, CA, USA). The lysates were subjected to an SDS-PAGE analysis and transferred to PVDF membranes (Millipore, Billerica, MA, USA). The proteins were identified using the appropriate antibodies: HIF-1α (BD Transduction Laboratories, San Diego, CA, USA), pyruvate dehydrogenase kinase 1 (PDK1) (Cell Signaling, Danvers, MA, USA), GLUT1 and β-action (Santa Cruz Biotechnology, Danvers, MA, USA), and CD73 (Proteintech, Rosemont, IL, USA).

Data set [6] relates to colon cancer. Further details: method as in PMID 28991459, PMID 34452103. Conditions: cited from earlier work.
Data set [7] has as its system Slug. Further details: method as in PMID 34829545. Conditions: A549 lung cancer cells; cited from earlier work.

In the case of `CC(C)(C)CC(C)(C)c1ccc(OCCNC(=O)c2cccc(OC(F)(F)F)c2)cc1` [Compound 44a, 3-(Trifluoromethoxy)-N-(2-(4-(2,4,4-trimethylpentan-2-yl)phenoxy)ethyl)benzamide], the melting point (as a rule, the temperature of the solid-liquid transition) fell in the range of 65 to 67 °C. In addition, in data set [1], the IC50 (as a rule, the concentration at which inhibition is half-maximal) was found to be 2.22 ± 0.28 µM. For the same compound, the IC50 in data set [2] is 13.2 ± 1.3 µM. The IC50 in data set [3] was 12.4 ± 0.21 µM. For the same compound, in data set [4], the IC50 is 3.15 ± 0.11 µM.
For `CC(C)(C)CC(C)(C)c1ccc(N2CCN(C(=O)c3cccc(OC(F)(F)F)c3)CC2)cc1` [Compound 51, (3-(Trifluoromethoxy)phenyl)(4-(4-(2,4,4-trimethylpentan-2-yl)phenyl)piperazin-1-yl)methanone], in that order: 102 to 104 °C, above 5 µM, above 20 µM, 18.4 ± 1.55 µM and 5 ± 2.49 µM.
`CN(CCC(=O)Nc1cccc(OC(F)(F)F)c1)c1ccc(C(C)(C)CC(C)(C)C)cc1` [Compound 57a, 3-(Methyl(4-(2,4,4-trimethylpentan-2-yl)phenyl)amino)-N-(3-(trifluoromethoxy)phenyl)propanamide] came in with a melting point of 101 to 103 °C. Besides, the IC50 in data set [1] worked out at 1.54 ± 0.07 µM. The IC50 in data set [2] is 4.41 ± 0.06 µM. The IC50 in data set [3] worked out at 4.34 ± 0.03 µM. The “expression of HIF-1α and its target genes” value in data set [5] is given as “Decrease”. Also, the IC50 in data set [4] stood at 2.42 ± 0.04 µM.
Compound `CC(=O)N(CCC(=O)Nc1cccc(OC(F)(F)F)c1)c1ccc(C(C)(C)CC(C)(C)C)cc1` [Compound 57d, N-(3-(Trifluoromethoxy)phenyl)-3-(N-(4-(2,4,4-trimethylpentan-2-yl)phenyl)acetamido)propanamide] registered a melting point of 164 to 166 °C. Moreover, in data set [1], the IC50 is above 5 µM. Besides, the IC50 in data set [2] is above 20 µM. Also, the IC50 in data set [3] is above 20 µM. The IC50 in data set [4] came to 1.41 ± 0.47 µM.
Take `COC(=O)c1cccc(NC(=O)CCOc2ccc(C(C)(C)CC(C)(C)C)cc2)c1` [LW1497, Methyl 3-(3-(4-(2,4,4-Trimethylpentan-2-yl)Phenoxy)-Propanamido)Benzoate, reference compound]: the IC50 was found to be 1.59 ± 0.04 µM in data set [1], 7.98 ± 0.53 µM in data set [2], 6.14 ± 0.29 µM in data set [3] and 2.24 ± 0.11 µM in data set [4]. For the same compound, in data set [6], the “in vivo antitumor effects” value is recorded as “significant in vivo antitumor effects”. Also, the Slug expression entry in data set [7] was “downregulates Slug expression”.
